Measurements published in patent US10344054B2, “Angiotensin-1-receptor antagonists” (Ferring B.V., priority 2016, dated 2019).
Starred links: 1 amine or outer side, 2 acyl side, 3 side chain; linkers in the order of their positions; H or OH if unused. Non-standard residues stand in square brackets, D forms with d. Residues, ends and D or L forms follow the SMILES beside them. X1 = O=C(CN(C[C@H](O)[C@@H](O)[C@H](O)[C@H](O)CO)[*:1])[*:2]; dPhe(2-Cl) = N[C@H](Cc1ccccc1Cl)C(=O)O; Chg = N[C@H](C(=O)O)C1CCCCC1

Tests used:
hAT1R [1] = target: T1, hAT1R (Homo sapiens, UniProt P30556); assay: FLIPR calcium flux assay, Part I: agonist activity; type: cell-based; conditions: ChanTest hAT1R stable cells; % MPE, percent of the maximal possible effect; read-out: hAT1R Agonist Efficacy Agonist (%) Ave
T1 sequence (P30556 1-359): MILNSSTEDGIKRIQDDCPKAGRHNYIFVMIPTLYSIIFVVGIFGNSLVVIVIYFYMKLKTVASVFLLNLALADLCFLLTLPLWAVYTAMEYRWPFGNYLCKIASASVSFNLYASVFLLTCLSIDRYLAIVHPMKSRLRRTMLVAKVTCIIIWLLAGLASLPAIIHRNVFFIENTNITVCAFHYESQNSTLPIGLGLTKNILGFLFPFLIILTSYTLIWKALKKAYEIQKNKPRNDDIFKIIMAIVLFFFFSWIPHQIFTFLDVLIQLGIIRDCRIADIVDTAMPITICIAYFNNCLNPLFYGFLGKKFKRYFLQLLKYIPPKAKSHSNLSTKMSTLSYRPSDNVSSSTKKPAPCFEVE
Protocol: (§1) AT1 receptor (AT1R) agonists increase intracellular flux of calcium ions. AT1R antagonists can reduce the agonist effect. […] Compounds were first tested for agonism (Part I) followed by addition of the AT1R agonist angiotensin II to test for antagonist activity (Part II). This assay used a stable hAT1R expressing cell line (ChanTest hAT1R; ChanTest Corp A628). Intracellular flux of calcium in response to agonist was measured through real-time measurement of fluorescence induced through the interaction of Ca2+ (released from intracellular stores) and calcium-sensitive dye. In Part I, cells were exposed to varying concentrations of test compounds and immediately measured for agonist activity (EC50 and Efficacy).
(§2) ChanTest hAT1R stable cells were maintained in Ham's F12 containing 10% (v/v) heat inactivated fetal bovine serum (FBS-HI), 4 mM Glutamax, 1% NEAA, 50 ng/mL plasmocin, 400 μg/mL G418 at 37° C. under 5% CO2 in a humidified atmosphere.
(§3) For FLIPR assay, ChanTest hAT1R cells were trypsinized with 6 ml of Trypsin EDTA solution and harvested in phenol-red free DMEM containing 10% FBS-HI, 4 mM Glutamax and counted, spun down and resuspended in the same medium. The cell suspension was added to the wells of 384-well black PDL clear bottom plates at 2.5×10^4 cells/well, 20 μl/well.
(§4) Preparation of Loading Buffer:
(§5) • Loading Buffer: 1 vial of Calcium 5 Bulk Assay reagent was dissolved in 100 ml of 1× HBSS-20 mM Hepes buffer. • Probenecid was resuspended at 1 M in 1 M NaOH. Once the probenecid had gone into solution, an equal volume of H2O was added to make a solution of 500 mM followed by a 1:100 dilution in the Loading Buffer for a working concentration of 5 mM. The pH was adjusted to 7.4 using 1 M NaOH. Loading the Cells with Loading Buffer • Cell plates were removed from the incubator and 25 μl of Loading Buffer containing probenecid (5 mM) added to each well. • Plates were incubated for 1 hour at 37° C. under 5% CO2 in a humidified atmosphere. […] The remaining steps of the assay were carried forward by FLIPR Tetra. A baseline reading was taken at 1-second (s) intervals for 10 s followed by the addition of 5 μl of 10× compounds. The compound-induced fluorescence signal was then measured for 3 minutes with readings taken at 1-s intervals. • The cell plate was removed from the FLIPR and set aside for an additional 17 minutes. • The cell plate was then transferred back to the FLIPR Tetra, along with the 384 well Angiotensin II agonist dilution plate. A baseline reading was taken at 1-second (s) intervals for 10 seconds, followed by the addition of 5.5 μl of 10× Angiotensin II agonist. The agonist-induced fluorescence signal was then measured for 3 minutes with readings taken at 1-s intervals. • Overall, each well in the FLIPR assay was composed of the following components in a total volume of 55.5 μl:
(§6) Time-course results from the FLIPR Calcium 5 assay were expressed as relative fluorescence light units (RFU). The maximum minus minimum values (Max−Min) were used to quantify the strength of the signal. Mean RFU were calculated from replicate values and plotted on the y-axis versus compound concentration on a logarithmic scale on the x-axis, and a single-binding site, four parameter concentration response model: (MIN+((MAX−MIN)/(1+((EC50/x)^Hill)))), was used to perform non-linear regression analysis, generating concentration response curves. Reported parameters included agonist potency EC50 (the concentration causing half-maximal agonist response), antagonist potency IC50 (the concentration causing half-maximal inhibition of the agonist response for antagonist compounds) and efficacy (% MPE: percent of the maximal possible effect).

hAT1R [2] = target: T1, hAT1R; assay: FLIPR calcium flux assay, Part II: antagonist activity against Angiotensin II; type: cell-based; conditions: for Emax: read-out: hAT1R Antagonist Efficacy Antag (%) Ave; for IC50: read-out: hAT1R Antagonist IC50 Ave; for hAT1R Antagonist Efficacy Antag (%) Ave: Angiotensin II 10 nM final concentration
Protocol: as §1, §2, §3, §4, §5, §6

Compound	Emax (hAT1R [1])	Emax (hAT1R [2])	IC50 (hAT1R [2])
CNCC(=O)N[C@@H](CCCNC(=N)N)C(=O)N[C@H](C(=O)N[C@@H](Cc1ccc(O)cc1)C(=O)N[C@H](C(=O)N[C@@H](Cc1c[nH]cn1)C(=O)N1CCC[C@H]1C(=O)N[C@H](Cc1ccccc1C)C(=O)O)C1CCCCC1)C(C)C [Compound 27, Sar-Arg-Val-Tyr-Chg-His-Pro-(D-Phe(2-Me))—OH] (HELM PEPTIDE1{[Sar].R.V.Y.[O=C([C@@H](N[*:1])C1CCCCC1)[*:2]].H.P.[Cc1ccccc1C[C@@H](N[*:1])C(=O)O]}$$$$V2.0)	8%	100%	14.5 nM
CNCC(=O)N[C@@H](CCCNC(=N)N)C(=O)N[C@H](C(=O)N[C@@H](Cc1ccc(O)c(Cl)c1)C(=O)N[C@H](C(=O)N[C@@H](Cc1c[nH]cn1)C(=O)N1CCC[C@H]1C(=O)N[C@H](Cc1ccccc1Cl)C(=O)O)C(C)C)C(C)C [Compound 28, Sar-Arg-Val-Tyr(3-Cl)-Val-His-Pro-(D-Phe(2-Cl))—OH] (HELM PEPTIDE1{[Sar].R.V.[O=C([C@H](Cc1ccc(O)c(Cl)c1)N[*:1])[*:2]].V.H.P.[O=C(O)[C@@H](Cc1ccccc1Cl)N[*:1]]}$$$$V2.0)	5%	99%	12.2 nM
CC(C)[C@H](NC(=O)[C@H](CCCNC(=N)N)NC(=O)CNC[C@H](O)[C@@H](O)[C@H](O)[C@H](O)CO)C(=O)N[C@@H](Cc1ccc(O)cc1)C(=O)N[C@H](C(=O)N[C@@H](Cc1c[nH]cn1)C(=O)N1CCC[C@H]1C(=O)N[C@H](Cc1ccccc1Cl)C(=O)O)C(C)C [Compound 29, Glac-Arg-Val-Tyr-Val-His-Pro-(D-Phe(2-Cl))—OH] (HELM PEPTIDE1{[O=C(CNC[C@H](O)[C@@H](O)[C@H](O)[C@H](O)CO)[*:2]].R.V.Y.V.H.P.[O=C(O)[C@@H](Cc1ccccc1Cl)N[*:1]]}$$$$V2.0)	6%	99%	19.5 nM
CNCC(=O)N[C@@H](CCCNC(=N)N)C(=O)N[C@H](C(=O)N[C@@H](Cc1cccc(O)c1)C(=O)N[C@H](C(=O)N[C@@H](Cc1c[nH]cn1)C(=O)N1CCC[C@H]1C(=O)N[C@H](Cc1ccccc1Cl)C(=O)O)C(C)C)C(C)C [Compound 30, Sar-Arg-Val-(m-Tyr)-Val-His-Pro-(D-Phe(2-Cl))—OH] (HELM PEPTIDE1{[Sar].R.V.[O=C([C@H](Cc1cccc(O)c1)N[*:1])[*:2]].V.H.P.[O=C(O)[C@@H](Cc1ccccc1Cl)N[*:1]]}$$$$V2.0)	12%	100%	20.5 nM
CC(C)[C@H](NC(=O)[C@H](CCCNC(=N)N)NC(=O)CNC[C@H](O)[C@@H](O)[C@H](O)[C@H](O)CO)C(=O)N[C@@H](Cc1ccc(O)cc1)C(=O)N[C@H](C(=O)N[C@@H](Cc1c[nH]cn1)C(=O)N1CCC[C@H]1C(=O)N[C@H](Cc1ccccc1Cl)C(=O)O)C1CCCCC1 [Compound 31, Glac-Arg-Val-Tyr-Chg-His-Pro-(D-Phe(2-Cl))—OH] (H-[X1]RVY[Chg]HP[dPhe(2-Cl)]-OH)	6%	99%	15.7 nM
CNCC(=O)N[C@@H](CCCNC(=N)N)C(=O)N[C@H](C(=O)N[C@@H](Cc1ccc(O)c(O)c1)C(=O)N[C@H](C(=O)N[C@@H](Cc1c[nH]cn1)C(=O)N1CCC[C@H]1C(=O)N[C@H](Cc1ccccc1Cl)C(=O)O)C(C)C)C(C)C [Compound 32, Sar-Arg-Val-DOPA-Val-His-Pro-(D-Phe(2-Cl))—OH] (HELM PEPTIDE1{[Sar].R.V.[O=C([C@H](Cc1ccc(O)c(O)c1)N[*:1])[*:2]].V.H.P.[O=C(O)[C@@H](Cc1ccccc1Cl)N[*:1]]}$$$$V2.0)	5%	99%	24.1 nM
CNCC(=O)N[C@@H](CCCNC(=N)N)C(=O)N[C@H](C(=O)N[C@@H](Cc1ccc(N)cc1)C(=O)N[C@H](C(=O)N[C@@H](Cc1c[nH]cn1)C(=O)N1CCC[C@H]1C(=O)N[C@H](Cc1ccccc1Cl)C(=O)O)C(C)C)C(C)C [Compound 33, Sar-Arg-Val-Aph-Val-His-Pro-(D-Phe(2-Cl))—OH] (HELM PEPTIDE1{[Sar].R.V.[Nc1ccc(C[C@H](N[*:1])C(=O)[*:2])cc1].V.H.P.[O=C(O)[C@@H](Cc1ccccc1Cl)N[*:1]]}$$$$V2.0)	3%	100%	17.1 nM
CNCC(=O)N[C@@H](CCCNC(=N)N)C(=O)N[C@H](C(=O)N[C@@H](Cc1ccc(O)cc1)C(=O)N[C@H](C(=O)N[C@@H](Cc1c[nH]cn1)C(=O)N1CCC[C@H]1C(=O)N[C@H](Cc1cccc2ccccc12)C(=O)O)C1CCCCC1)C(C)C [Compound 34, Sar-Arg-Val-Tyr-Chg-His-Pro-(D-1Nal)-OH] (HELM PEPTIDE1{[Sar].R.V.Y.[O=C([C@@H](N[*:1])C1CCCCC1)[*:2]].H.P.[O=C(O)[C@@H](Cc1cccc2ccccc12)N[*:1]]}$$$$V2.0)	5%	100%	15.5 nM
CNCC(=O)N[C@@H](CCCNC(=N)N)C(=O)N[C@H](C(=O)N[C@@H](Cc1ccc(O)cc1)C(=O)N[C@H](C(=O)N[C@@H](Cc1c[nH]cn1)C(=O)N1CCC[C@H]1C(=O)N[C@H](Cc1csc2ccccc12)C(=O)O)C1CCCCC1)C(C)C [Compound 35, Sar-Arg-Val-Tyr-Chg-His-Pro-(D-(3-benzothienyl)alanine)-OH] (HELM PEPTIDE1{[Sar].R.V.Y.[O=C([C@@H](N[*:1])C1CCCCC1)[*:2]].H.P.[O=C(O)[C@@H](Cc1csc2ccccc12)N[*:1]]}$$$$V2.0)	6%	100%	14.3 nM
CNCC(=O)N[C@@H](CCCNC(=N)N)C(=O)N[C@H](C(=O)N[C@@H](Cc1ccc(O)cc1)C(=O)N[C@H](C(=O)N[C@@H](Cc1c[nH]cn1)C(=O)N1CCC[C@H]1C(=O)N[C@H](Cc1ccccc1-c1ccccc1)C(=O)O)C1CCCCC1)C(C)C [Compound 36, Sar-Arg-Val-Tyr-Chg-His-Pro-(D-Phe(2-Ph))—OH] (HELM PEPTIDE1{[Sar].R.V.Y.[O=C([C@@H](N[*:1])C1CCCCC1)[*:2]].H.P.[O=C(O)[C@@H](Cc1ccccc1-c1ccccc1)N[*:1]]}$$$$V2.0)	13%	100%	26 nM
CC(C)[C@H](NC(=O)[C@H](CCCNC(=N)N)NC(=O)CNC[C@H](O)[C@@H](O)[C@H](O)[C@H](O)CO)C(=O)N[C@@H](Cc1ccc(O)cc1)C(=O)N[C@H](C(=O)N[C@@H](Cc1c[nH]cn1)C(=O)N1CCC[C@H]1C(=O)N[C@H](Cc1cccc2ccccc12)C(=O)O)C(C)C [Compound 37, Glac-Arg-Val-Tyr-Val-His-Pro-(D-1Nal)-OH] (HELM PEPTIDE1{[O=C(CNC[C@H](O)[C@@H](O)[C@H](O)[C@H](O)CO)[*:2]].R.V.Y.V.H.P.[O=C(O)[C@@H](Cc1cccc2ccccc12)N[*:1]]}$$$$V2.0)	7%	99%	19.5 nM
